Results on seven compounds are retold here after ChEMBL document CHEMBL1133342, “A convenient extension of the Wessely-Moser rearrangement for the synthesis of substituted alkylaminoflavones as neuroprotective agents in vitro” (Bioorg Med Chem Lett, 2000).

Series [1] is described as follows: Maximum tolerated concentration in vitro against murine HT-22 hippocampal cell cultures by LDH assay. It is filed as functional, Mus musculus, Hippocampus.
The nature of series [2]: Maximum tolerated concentration in vitro against murine HT-22 hippocampal cell cultures by MTT reduction assay. It is filed as functional, Mus musculus, Hippocampus. For orientation: Formazan colour is commonly taken as a measure of viable cells.
Series [3] can be described thus: Compound was tested in vitro for neuroprotective activity against L-homocysteic acid cytotoxicity in murine HT-22 hippocampal cell cultures by LDH assay. It is filed as functional, Mus musculus, Hippocampus.
The nature of series [4]: Compound was tested in vitro for neuroprotective activity against L-homocysteic acid cytotoxicity in murine HT-22 hippocampal cell cultures by MTT reduction assay. Type of series: functional, Mus musculus, Hippocampus.
The nature of series [5]: Compound was tested in vitro for intrinsic neurotoxicity against murine HT-22 hippocampal cell cultures by LDH assay. Further details: species or system Hippocampus. As to conditions: mouse, HT-22 hippocampal cells; read-out: TC50 (the source's name).
A short description of series [6]: Compound was tested in vitro for intrinsic neurotoxicity against murine HT-22 hippocampal cell cultures by MTT reduction assay. More on the design: species or system Hippocampus. The conditions noted are these: mouse, HT-22 hippocampal cells; read-out: TC50 (the source's name).

In the case of `C=CCNc1c(O)cc(O)c2c(=O)cc(-c3ccccc3)oc12`, the MTC in series [1] stood at 10 µM; in series [2], 5 µM. Moreover, the PC50 in series [3] was greater than 10 µM; in series [4], greater than 5 µM. For the same compound, the CC50 in series [5] stood at 11 µM; in series [6], 18 µM.
For `CCCNc1c(O)cc(O)c2c(=O)cc(-c3ccccc3)oc12`, the results for the MTC in series [1] and in series [2] were 25 µM and 5 µM, respectively. Also, the PC50 turned out to be 8 µM in series [3] and 7 µM in series [4]. Moreover, the CC50 in series [5] is 28 µM; in series [6], 14 µM.
For `CC(C)Nc1c(O)cc2oc(-c3ccccc3)cc(=O)c2c1O`, the MTC in series [1] turned out to be 100 µM; in series [2], 10 µM. Besides, the PC50 in series [3] was found to be 6.6 µM; in series [4], 5.1 µM. Moreover, the CC50 turned out to be 152 µM in series [5] and 18 µM in series [6].
Take `CCCNc1c(O)cc2oc(-c3ccccc3)cc(=O)c2c1O`: the MTC in series [1] amounted to 100 µM; in series [2], 5 µM. Moreover, the PC50 in series [3] turned out to be 5.5 µM; in series [4], 5.2 µM. For the same compound, the CC50 in series [5] is 176 µM; in series [6], 10 µM.
Turning to `CC(C)CNc1c(O)cc(O)c2c(=O)cc(-c3ccccc3)oc12`, the MTC in series [1] and in series [2] was 10 µM each time. Moreover, the PC50 in series [3] came out at 4.2 µM; in series [4], 4.6 µM. In addition, the CC50 in series [5] and in series [6] was 12 µM each time.
Take `CC(C)CCNc1c(O)cc(O)c2c(=O)cc(-c3ccccc3)oc12`: the MTC in series [1] and in series [2] was 10 µM throughout. Also, the PC50 turned out to be 5.5 µM in series [3] and 5.3 µM in series [4]. Further, the CC50 was determined as 16 µM in series [5] and 12 µM in series [6].
In the case of `CC(C)CCNc1c(O)cc2oc(-c3ccccc3)cc(=O)c2c1O`, the MTC in series [1] was found to be 100 µM; in series [2], 5 µM. For the same compound, the PC50 in series [3] and in series [4] was 5.2 µM each time. Besides, the CC50 in series [5] was 116 µM; in series [6], 16 µM.
